Test results as given in patent EP0136831A2, “Azahomoerythromycin B derivatives and intermediates thereof” (PFIZER INC., priority 1983, dated 1985).
≈ marks a conversion by molar mass, not a printed value. Where two headings read alike, the source gives them in different places.

Key:
[1] = tested on: Staph. aur.; assay: MIC in brain heart infusion (BHI) broth; type: cell-based
Description: (§1) Generally twelve 2 fold dilutions of the test compound. are employed, with initial concentration of the test drug being in the range of 50 to 200 mcg/ml. The susceptibility (MIC) of the test organism is accepted as the lowest concentration of compound capable of producing complete inhibition of growth as judged by the naked eye.

[2] = tested on: Ent. cloac.; assay: MIC in brain heart infusion (BHI) broth; type: cell-based; conditions: strain 009
Description: as §1

[3] = tested on: H. influ.; assay: MIC in brain heart infusion (BHI) broth; type: cell-based
Description: as §1

[4] = tested on: Prov. strua.; assay: MIC in brain heart infusion (BHI) broth; type: cell-based; conditions: strain 013
Description: as §1

[5] = tested on: Past. mult.; assay: MIC in brain heart infusion (BHI) broth; type: cell-based; conditions: strain 001
Description: as §1

[6] = tested on: Staph. epi; assay: MIC in brain heart infusion (BHI) broth; type: cell-based; conditions: strain 111
Description: as §1

[7] = tested on: Strep. pyog.; assay: MIC in brain heart infusion (BHI) broth; type: cell-based; conditions: strain 203
Description: as §1

[8] = tested on: Neiss. sic.; assay: MIC in brain heart infusion (BHI) broth; type: cell-based; conditions: strain 000
Description: as §1

[9] = tested on: Serr. mar.; assay: MIC in brain heart infusion (BHI) broth; type: cell-based; conditions: strain 017
Description: as §1

[10] = tested on: Strep. faec.; assay: MIC in brain heart infusion (BHI) broth; type: cell-based; conditions: strain 006
Description: as §1

[11] = tested on: Kleb. oxy.; assay: MIC in brain heart infusion (BHI) broth; type: cell-based; conditions: strain 024
Description: as §1

[12] = tested on: E. coli; assay: MIC in brain heart infusion (BHI) broth; type: cell-based; conditions: Escherichia coli
[13] = tested on: Kleb. pn.; assay: MIC in brain heart infusion (BHI) broth; type: cell-based; conditions: for MIC: strain 009
[14] = tested on: Ent. aerog.; assay: MIC in brain heart infusion (BHI) broth; type: cell-based; conditions: strain 040
[15] = Microbiological (bioassay) determination of serum levels after oral dosage; type: in vivo; conditions: mice
Experimental: Additionally, the compounds (II) and (VI) are tested in vivo by the well-known mouse protection test, or by a microbiological (bioassay) determination of serum levels in a variety of mammals (e.g., mouse, rat, dog).

[16] = strain 036, read-out: MIC Values
[17] = strain 038, read-out: MIC Values
[18] = strain 042, read-out: MIC Values
[19] = strain 051, read-out: MIC Values
[20] = strain 073, read-out: MIC Values
[21] = strain 078, read-out: MIC Values
[22] = strain 081, read-out: MIC Values

Structure (SMILES)	MIC ([1]; strain 005)	MIC ([1]; strain 052)	MIC ([1]; strain 400)	MIC [2]	MIC [4]	MIC [5]	MIC [6]	MIC [7]	MIC [9]	MIC [10]	MIC [11]	MIC ([12]; strain 125)	MIC ([12]; strain 129)	MIC ([12]; strain 266)	MIC ([12]; strain 470)	MIC [13]	MIC [14]	MIC [3, 16]	MIC [3, 17]	MIC [3, 18]	other results
CC[C@H]1OC(=O)[C@H](C)[C@@H](O[C@H]2C[C@@](C)(OC)[C@@H](O)[C@H](C)O2)[C@H](C)[C@@H](O[C@@H]2O[C@H](C)C[C@H](N(C)C)[C@H]2O)[C@](C)(O)C[C@@H](C)C(=O)[C@H](C)[C@@H](O)[C@]1(C)O [(1), Erythromycin A]	0.05 µg/mL (≈ 0.0681 µM)	0.1 µg/mL (≈ 0.136 µM)	6.25 µg/mL (≈ 8.52 µM)	> 50 µg/mL	> 50 µg/mL	0.78 µg/mL (≈ 1.06 µM)	0.05 µg/mL (≈ 0.0681 µM)	0.025 µg/mL (≈ 0.0341 µM)	> 50 µg/mL	0.39 µg/mL (≈ 0.531 µM)	> 50 µg/mL	> 50 µg/mL	> 50 µg/mL	> 50 µg/mL	1.56 µg/mL (≈ 2.13 µM)	> 50 µg/mL	> 50 µg/mL	–	–	–	MIC ([3]; read-out: MIC Values, strain 012): 3.12 µg/mL (≈ 4.25 µM); MIC ([3]; read-out: MIC Values, strain 036): 3.12 µg/mL (≈ 4.25 µM); MIC ([3]; read-out: MIC Values, strain 038): 1.56 µg/mL (≈ 2.13 µM); MIC ([3]; read-out: MIC Values, strain 042): 3.12 µg/mL (≈ 4.25 µM); MIC ([3]; read-out: MIC Values, strain 051): 3.12 µg/mL (≈ 4.25 µM); MIC ([3]; read-out: MIC Values, strain 073): 3.12 µg/mL (≈ 4.25 µM); MIC ([3]; read-out: MIC Values, strain 078): 1.56 µg/mL (≈ 2.13 µM); MIC ([3]; read-out: MIC Values, strain 081): 3.12 µg/mL (≈ 4.25 µM); MIC [8]: 3.12 µg/mL (≈ 4.25 µM)
CC[C@H]1OC(=O)[C@H](C)[C@@H](O[C@H]2C[C@@](C)(OC)[C@@H](O)[C@H](C)O2)[C@H](C)[C@@H](O[C@@H]2O[C@H](C)C[C@H](N(C)C)[C@H]2O)[C@](C)(O)C[C@@H](C)CN(C)[C@H](C)[C@@H](O)[C@]1(C)O [(2), 9-Deoxo-9a-methyl-9a-aza-9a-homoerythromycin A]	0.2 µg/mL (≈ 0.267 µM)	0.39 µg/mL (≈ 0.521 µM)	25 µg/mL (≈ 33.4 µM)	25 µg/mL (≈ 33.4 µM)	50 µg/mL (≈ 66.8 µM)	0.1 µg/mL (≈ 0.134 µM)	0.1 µg/mL (≈ 0.134 µM)	0.025 µg/mL (≈ 0.0334 µM)	–	1.56 µg/mL (≈ 2.08 µM)	25 µg/mL (≈ 33.4 µM)	–	6.25 µg/mL (≈ 8.34 µM)	6.25 µg/mL (≈ 8.34 µM)	0.78 µg/mL (≈ 1.04 µM)	–	–	0.78 µg/mL (≈ 1.04 µM)	0.78 µg/mL (≈ 1.04 µM)	0.78 µg/mL (≈ 1.04 µM)	MIC [3, 19]: 1.56 µg/mL (≈ 2.08 µM); MIC [3, 20]: 0.78 µg/mL (≈ 1.04 µM); MIC [3, 21]: 0.39 µg/mL (≈ 0.521 µM); MIC [3, 22]: 0.78 µg/mL (≈ 1.04 µM)
CC[C@H]1OC(=O)[C@H](C)[C@@H](O[C@H]2C[C@@](C)(OC)[C@@H](O)[C@H](C)O2)[C@H](C)[C@@H](O[C@@H]2O[C@H](C)C[C@H](N(C)C)[C@H]2O)[C@](C)(O)C[C@@H](C)CN(C)[C@H](C)[C@@H](O)[C@H]1C [compound (II), 9-Deoxo-9a-methyl-9a-aza-9a-homoerythromycin B]	0.39 µg/mL (≈ 0.532 µM)	0.39 µg/mL (≈ 0.532 µM)	> 50 µg/mL	> 50 µg/mL	> 50 µg/mL	0.1 µg/mL (≈ 0.136 µM)	0.2 µg/mL (≈ 0.273 µM)	0.025 µg/mL (≈ 0.0341 µM)	> 50 µg/mL	1.56 µg/mL (≈ 2.13 µM)	50 µg/mL (≈ 68.2 µM)	50 µg/mL (≈ 68.2 µM)	25 µg/mL (≈ 34.1 µM)	25 µg/mL (≈ 34.1 µM)	0.39 µg/mL (≈ 0.532 µM)	50 µg/mL (≈ 68.2 µM)	> 50 µg/mL	3.12 µg/mL (≈ 4.26 µM)	3.12 µg/mL (≈ 4.26 µM)	1.56 µg/mL (≈ 2.13 µM)	MIC ([3]; strain 012, read-out: MIC Values): 1.56 µg/mL (≈ 2.13 µM); MIC [3, 19]: 3.12 µg/mL (≈ 4.26 µM); MIC [3, 20]: 0.2 µg/mL (≈ 0.273 µM); MIC [3, 21]: 0.78 µg/mL (≈ 1.06 µM); MIC [3, 22]: 1.56 µg/mL (≈ 2.13 µM); absorption after oral dosage [15]: exceptionally well absorbed; serum levels [15]: exceptionally high and long lasting; MIC Values ([13]; strain 031): 50 µg/mL (≈ 68.2 µM)
